Values after ≈ are worked out from the molar mass of the structure shown. Each block holds one compound with its values, some of them ahead of it.
Tests used:
[1] = molecular target: Serine/threonine-protein kinase pim-2 (Homo sapiens, UniProt Q9P1W9); experiment: Inhibition of PIM2 (unknown origin) using 5FAM-ARKRRRHPSGPPTA as substrate after 90 mins in presence of ATP by caliper microfluidic mobility shift assay
[2] = Oral bioavailability in rat at 5 mg/kg; assay type: ADME, organism-based; conditions: in vivo
[3] = Metabolic stability in rat intestinal microsomes assessed as compound remaining after 60 mins in presence of NADPH/UDPGA; assay type: ADME, Intestine, Microsome; conditions: intestinal microsomes, read-out: Stability
[4] = Clearance in rat hepatocytes; assay type: ADME, cell-based, Hepatocyte
[5] = Clearance in rat liver microsomes; assay type: ADME, microsome
[6] = Clearance in rat at 1 mg/kg, iv; assay type: ADME, organism-based; conditions: in vivo
hERG (KCNH2) [7] = molecular target: T1, hERG (KCNH2) (Homo sapiens, UniProt Q12809); experiment: Inhibition of human ERG expressed in HEK293 cells at 1 uM after 5 mins by patch clamp assay; assay type: cell-based; conditions: HEK293 cells that express hERG
hERG (KCNH2) [8] = molecular target: T1, hERG (KCNH2); experiment: Inhibition of human ERG expressed in HEK293 cells at 10 uM after 5 mins by patch clamp assay; assay type: cell-based; conditions: HEK293 cells that express hERG
Homo sapiens [9] = organism: Homo sapiens; experiment: Inhibition of PIM in human […] cells assessed as reduction in BAD phosphorylation by Western blot analysis; assay type: cell-based
[10] = molecular target: Serine/threonine-protein kinase pim-3 (Homo sapiens, UniProt Q86V86); experiment: Inhibition of PIM3 (unknown origin) using 5FAM-ARKRRRHPSGPPTA as substrate after 90 mins in presence of ATP by caliper microfluidic mobility shift assay
[11] = molecular target: Dual specificity protein kinase CLK1 (Homo sapiens) (UniProt P49759); experiment: Inhibition of CLK1 (unknown origin) at 0.1 uM
Homo sapiens [12] = organism: Homo sapiens; experiment: Inhibition of PIM in human MM1S cells assessed as reduction in S6 s235/236 phosphorylation by Western blot analysis; assay type: cell-based
[13] = molecular target: T2, Serine/threonine-protein kinase pim-1 (Homo sapiens, UniProt P11309); experiment: Inhibition of PIM1 (unknown origin) using 5FAM-ARKRRRHPSGPPTA as substrate after 90 mins in presence of ATP by caliper microfluidic mobility shift assay
Target sequence in this assay (P11309 whole entry): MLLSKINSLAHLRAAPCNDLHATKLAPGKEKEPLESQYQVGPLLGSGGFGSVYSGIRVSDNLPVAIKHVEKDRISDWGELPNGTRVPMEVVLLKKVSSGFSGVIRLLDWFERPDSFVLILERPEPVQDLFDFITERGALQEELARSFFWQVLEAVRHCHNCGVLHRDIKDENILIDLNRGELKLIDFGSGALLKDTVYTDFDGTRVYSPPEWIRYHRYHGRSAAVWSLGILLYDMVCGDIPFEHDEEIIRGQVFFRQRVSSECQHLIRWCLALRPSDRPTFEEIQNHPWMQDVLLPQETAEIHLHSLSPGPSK

[14] = molecular target: T2, Serine/threonine-protein kinase pim-1; experiment: Inhibition of PIM1 (unknown origin) at 0.1 uM
Target sequence in this assay (P11309 whole entry, looked up): as the sequence (P11309 whole entry) above

Homo sapiens [15] = organism: Homo sapiens; experiment: Inhibition of PIM in human […] cells assessed as reduction in 4EBP1 phosphorylation by Western blot analysis; assay type: cell-based
Homo sapiens [16] = organism: Homo sapiens; experiment: Inhibition of PIM in human MM1S cells assessed as reduction in S6 s240/244 phosphorylation by Western blot analysis; assay type: cell-based
MM1.S = experiment: Antiproliferative activity against human MM1S cells after 72 hrs by CellTiter-Glo assay; assay type: functional, cell-based
[17] = molecular target: Receptor-type tyrosine-protein kinase FLT3 (Homo sapiens) (UniProt P36888); experiment: Inhibition of FLT3 (unknown origin) at 0.1 uM
[18] = Metabolic stability in rat intestinal microsomes assessed as compound remaining after 60 mins in presence of NADPH; assay type: ADME, Intestine, Microsome; conditions: read-out: Stability
Plasma [19] = experiment: Drug metabolism in rat assessed as 6-((R)-1-(6-(5-(1-ethyl-1H-pyrazol-4-yl)-1H-pyrazolo[3,4-c]pyridin-3-yl)pyridin-2-yl)piperidin-3-ylamino)-3,4,5-trihydroxytetrahydro-2H-pyran-2-carboxylic acid metabolite formation in plasma at 5 mg/kg, po; assay type: ADME, organism-based; conditions: in vivo
[20] = Kinetic solubility of compound at pH 7.4; conditions: buffer
Plasma [21] = experiment: Drug level in rat plasma treated with N4-Phenylpyrimidine-2,4-diamine at 5 mg/kg, po; assay type: ADME, organism-based; conditions: in vivo
[22] = Apparent permeability across apical to basolateral side in MDCK cells; assay type: ADME, cell-based, Canis lupus familiaris; conditions: dog
[23] = Metabolic stability in rat intestinal microsomes assessed as compound remaining after 60 mins in absence of NADPH/UDPGA; assay type: ADME, Intestine, Microsome; conditions: intestinal microsomes, read-out: Stability
[24] = Metabolic stability in rat intestinal microsomes assessed as compound remaining after 60 mins in presence of UDPGA; assay type: ADME, Intestine, Microsome; conditions: read-out: Stability
Plasma [25] = experiment: Drug metabolism in rat assessed as M1 metabolite formation in plasma at 5 mg/kg, po; assay type: ADME, organism-based; conditions: in vivo
[26] = Efflux ratio of apparent permeability in MDCK cells; conditions: dog

T1 sequence (Q12809 whole entry): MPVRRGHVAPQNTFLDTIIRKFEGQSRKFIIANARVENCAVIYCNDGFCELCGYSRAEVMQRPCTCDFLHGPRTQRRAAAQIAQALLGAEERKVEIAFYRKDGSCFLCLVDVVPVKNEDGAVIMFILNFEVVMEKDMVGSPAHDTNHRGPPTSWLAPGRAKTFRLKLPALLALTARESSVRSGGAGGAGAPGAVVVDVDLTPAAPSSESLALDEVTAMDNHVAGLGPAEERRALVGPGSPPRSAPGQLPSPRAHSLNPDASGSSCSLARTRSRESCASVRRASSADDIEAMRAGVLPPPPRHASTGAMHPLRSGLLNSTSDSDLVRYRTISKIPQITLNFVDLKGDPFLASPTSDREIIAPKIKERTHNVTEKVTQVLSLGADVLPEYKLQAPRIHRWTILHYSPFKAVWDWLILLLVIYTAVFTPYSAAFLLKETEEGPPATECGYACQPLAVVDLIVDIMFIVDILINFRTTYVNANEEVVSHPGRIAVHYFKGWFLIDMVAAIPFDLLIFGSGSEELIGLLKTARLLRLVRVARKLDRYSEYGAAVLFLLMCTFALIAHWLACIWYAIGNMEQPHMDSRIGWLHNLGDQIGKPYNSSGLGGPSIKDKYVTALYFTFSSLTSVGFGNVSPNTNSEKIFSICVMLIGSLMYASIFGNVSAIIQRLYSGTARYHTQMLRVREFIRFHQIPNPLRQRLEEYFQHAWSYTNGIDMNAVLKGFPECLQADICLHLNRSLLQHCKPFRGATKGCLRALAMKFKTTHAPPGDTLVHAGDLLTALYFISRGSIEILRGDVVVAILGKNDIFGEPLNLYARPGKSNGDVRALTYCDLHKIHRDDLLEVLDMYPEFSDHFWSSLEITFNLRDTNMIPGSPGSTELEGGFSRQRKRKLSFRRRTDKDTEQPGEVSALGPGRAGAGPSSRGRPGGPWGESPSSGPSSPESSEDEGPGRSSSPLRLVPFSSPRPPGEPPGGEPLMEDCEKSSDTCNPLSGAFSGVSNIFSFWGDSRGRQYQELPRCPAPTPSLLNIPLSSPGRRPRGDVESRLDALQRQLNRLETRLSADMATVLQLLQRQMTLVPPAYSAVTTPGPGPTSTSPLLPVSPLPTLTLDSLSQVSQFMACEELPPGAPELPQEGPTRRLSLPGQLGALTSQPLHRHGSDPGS
Sequence of Receptor-type tyrosine-protein kinase FLT3 (Homo sapiens) (P36888 whole entry): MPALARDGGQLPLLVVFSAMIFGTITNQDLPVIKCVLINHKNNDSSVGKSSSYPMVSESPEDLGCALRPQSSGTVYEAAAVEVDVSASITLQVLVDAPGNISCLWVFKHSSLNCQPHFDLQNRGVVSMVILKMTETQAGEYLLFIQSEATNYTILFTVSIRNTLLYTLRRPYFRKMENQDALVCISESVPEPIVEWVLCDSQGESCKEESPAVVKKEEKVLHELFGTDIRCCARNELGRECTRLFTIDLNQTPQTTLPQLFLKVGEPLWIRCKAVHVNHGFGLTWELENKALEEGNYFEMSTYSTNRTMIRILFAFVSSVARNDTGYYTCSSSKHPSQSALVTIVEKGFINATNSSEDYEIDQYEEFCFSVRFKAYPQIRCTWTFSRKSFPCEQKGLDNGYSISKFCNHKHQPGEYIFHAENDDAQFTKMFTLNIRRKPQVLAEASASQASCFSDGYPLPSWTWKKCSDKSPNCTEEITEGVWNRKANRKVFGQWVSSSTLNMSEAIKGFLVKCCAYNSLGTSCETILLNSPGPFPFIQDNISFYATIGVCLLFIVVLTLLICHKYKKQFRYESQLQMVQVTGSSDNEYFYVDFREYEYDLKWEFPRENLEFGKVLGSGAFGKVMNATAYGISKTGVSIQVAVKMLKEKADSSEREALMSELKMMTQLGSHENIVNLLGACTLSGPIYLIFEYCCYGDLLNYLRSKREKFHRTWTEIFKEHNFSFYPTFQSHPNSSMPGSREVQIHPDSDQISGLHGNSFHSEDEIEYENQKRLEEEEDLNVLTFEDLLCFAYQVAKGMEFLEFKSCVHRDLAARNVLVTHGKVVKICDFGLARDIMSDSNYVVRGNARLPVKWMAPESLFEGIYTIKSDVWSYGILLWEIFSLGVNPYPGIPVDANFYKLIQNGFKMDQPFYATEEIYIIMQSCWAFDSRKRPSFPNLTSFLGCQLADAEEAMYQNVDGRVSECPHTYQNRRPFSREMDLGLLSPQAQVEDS
Sequence of Dual specificity protein kinase CLK1 (Homo sapiens) (P49759 whole entry, looked up): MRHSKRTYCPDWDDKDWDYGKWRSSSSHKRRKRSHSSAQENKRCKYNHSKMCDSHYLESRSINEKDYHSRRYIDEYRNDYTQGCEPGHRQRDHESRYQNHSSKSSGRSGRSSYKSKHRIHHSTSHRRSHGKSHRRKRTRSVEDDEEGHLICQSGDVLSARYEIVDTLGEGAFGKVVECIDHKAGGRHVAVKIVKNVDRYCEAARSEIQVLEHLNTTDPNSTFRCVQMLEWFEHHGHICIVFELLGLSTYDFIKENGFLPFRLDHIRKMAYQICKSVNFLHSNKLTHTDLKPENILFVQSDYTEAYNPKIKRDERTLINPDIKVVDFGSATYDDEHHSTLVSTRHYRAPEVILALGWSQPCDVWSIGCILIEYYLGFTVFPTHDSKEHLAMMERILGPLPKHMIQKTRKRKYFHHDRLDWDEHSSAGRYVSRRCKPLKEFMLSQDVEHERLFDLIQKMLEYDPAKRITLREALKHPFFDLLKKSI
Sequence of Serine/threonine-protein kinase pim-2 (Q9P1W9 whole entry): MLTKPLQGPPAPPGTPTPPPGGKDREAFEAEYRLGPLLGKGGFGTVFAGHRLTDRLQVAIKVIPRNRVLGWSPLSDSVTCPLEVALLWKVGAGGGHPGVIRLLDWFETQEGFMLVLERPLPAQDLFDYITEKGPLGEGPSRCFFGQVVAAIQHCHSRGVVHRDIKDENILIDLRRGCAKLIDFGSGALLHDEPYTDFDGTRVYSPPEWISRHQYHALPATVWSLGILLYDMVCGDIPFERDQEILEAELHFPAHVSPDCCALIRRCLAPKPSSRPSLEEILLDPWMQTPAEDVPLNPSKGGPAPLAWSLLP

Ki [1]: 0.11 nM | bioavailability [2]: 103% | remaining at 1 h [3]: 101% | CLhep predicted [4]: 19 mL/min/kg | CLhep predicted [5]: 29 mL/min/kg | clearance [6]: 34 mL/min/kg | Ki [10]: 0.008 to 0.02 nM | inhibition [11]: 97% | Ki [13]: 0.018 to 0.03 nM | inhibition [14]: 100% | IC50 (MM1.S): 500 to 510 nM | inhibition [17]: 82%
SMILES: COc1ccc(-n2ncc3cnc(-c4cncc(C)n4)cc32)nc1N1CCC[C@H](N)C1
inhibition at 5 min, 1 µM (hERG (KCNH2) [7]): 37% | inhibition at 5 min, 10 µM (hERG (KCNH2) [8]): 49% | inhibition (Homo sapiens [9]): Dose-dependent effect | inhibition (Homo sapiens [12]): Dose-dependent effect | inhibition (Homo sapiens [15]): Dose-dependent effect | inhibition (Homo sapiens [16]): Dose-dependent effect

remaining at 1 h [18]: 83% | bioavailability [2]: 1% | Drug metabolism (Plasma [19]): Metabolite_Detected | remaining at 1 h [3]: 30% | solubility kinetic [20]: 116 µM (≈ 45.1 µg/mL) | Drug metabolism (Plasma [21]): Metabolite_Detected | CLhep predicted [4]: 14 mL/min/kg | CLhep predicted [5]: 24 mL/min/kg | Papp A→B [22]: 0.4 ×10⁻⁶ cm/s | clearance [6]: 8 mL/min/kg | remaining at 1 h [23]: 96% | remaining at 1 h [24]: 15% | Drug metabolism (Plasma [25]): Metabolite_Detected | efflux ratio [26]: 56
SMILES: CCn1cc(-c2cc3c(-c4cccc(N5CCC[C@@H](N)C5)n4)n[nH]c3cn2)cn1

— ChEMBL document CHEMBL4049450, “Discovery of 5-Azaindazole (GNE-955) as a Potent Pan-Pim Inhibitor with Optimized Bioavailability” (J Med Chem, 2017)
